Data reported in patent US20240190994A1, “FUSION PROTEIN BETWEEN ANTIGEN-BINDING MOLECULE AND STREPTAVIDIN VARIANT” (The University of Tokyo, priority 2021, published 2024).

Assays:
[1] = system: KPL-4 xenograft tumor site, skin and major organs; test: pathological analysis (H & E histology) of xenograft mouse models; assay type: in vivo, BALB/cSlc-nu/nu nude mice; details: 97th day
Text: Skin samples from xenograft tumor sites, and samples from other important organs including lung, heart, kidney, liver and gastrointestinal tract, were obtained from the mice. […] Stained slides were dehydrated again by being immersed in ethanol and then being immersed in xylene. […] The H & E-stained slides were histologically examined using the OLYMPUS cellSens Standard system (OLYMPUS, Tokyo, Japan).

[2] = system: KPL-4 xenograft (HER2-positive breast cancer); test: in vivo breast cancer tumor model experiment, tumor volume; design: species or system BALB/cSlc-nu/nu nude mice
Description: The KPL-4 cell line was maintained in DMEM (low glucose) (FUJIFILM Wako Pure Chemical Corporation, Osaka, Japan) supplemented with 10% FBS, 100 U/mL penicillin, and 100 μg/mL streptomycin (#15140122, Thermo Fisher Scientific, Waltham, MA, USA) (Kurebayashi J, Otsuki T, Tang CK, et al. Isolation and characterization of a new human breast cancer cell line, KPL-4, expressing the Erb B family receptors and interleukin-6. Br J Cancer. 1999; 79: 707-717. doi:10.1038/sj.bjc.6690114). The KPL-4 cells (7,500,000) were subcutaneously transplanted into the thigh of BALB/cSlc-nu/nu nude mice (Sankyo Lab Service, Inc., Tokyo, Japan). Proliferation of the subcutaneous tumor was monitored by measuring a tumor volume (0.5×length×width^2) using Vernier calipers, and the body weight of the animals was then monitored as an indicator of treatment-related toxicity.
In this study, in order to evaluate tumor recurrence, the observation period was set to be […] after the initial treatment. […] Finally, the xenograft mouse models were sacrificed at 97 days after the treatment, namely, at 19 days or more after the second treatment.
Preparation of ZHER2:342-Cupid-His and Psyche-Ax-SiPC was as previously reported (Yamatsugu K, Katoh H, Yamashita T, et al., Antibody mimetic drug conjugate manufactured by high-yield Protein Expr Purif. 2022; 192: 106043. doi:10.1016/j.pep.2021 106043). Briefly speaking, Psyche-Ax-SiPC solubilized in dimethyl sulfoxide at a concentration of 5 mM was preserved as a stock solution at −80° C. In order to prepare a complex, ZHER2:342-Cupid-His and Psyche-Ax-SiPC were mixed with each other at a molar ratio of 1:2 in a dark place on ice for 10 minutes. A concentrate of ZHER2:342-Cupid-His-Ax-SiPC was diluted using a phosphate-buffered saline.
Twenty hours after the injection, the mice in the ZHER2:342-Cupid-His-Ax-SiPC group were irradiated with a 690-nm light emitting diode light (Yamato Scientific Co., Ltd., Tokyo, Japan) at 230 J/cm^−2. Forty-eight hours after the initial light irradiation, the tumor was irradiated again in the same manner as that described above.

## trastuzumab emtansine [Kadcyla]
[1]
  pathological response: pathological complete remission was achieved
[1]; FIG. 13 and FIG. 14
  metastatic tumors in lymph nodes or distant organs: No metastatic tumors were observed
[1]; n=10, FIG. 13 and FIG. 14
  residual tumor cells in the subcutaneous region around the xenograft tumor site: no residual tumor cells were observed
[2]; Kadcyla 300 μg/mouse, ZHER2:342-Cupid-His-Ax-SiPC 150 μg/mouse with 690-nm light, n=10, FIG. 11
  tumor size after the first treatment: a reduction in the tumor size was observed
[2]; at 21 days after the injection, n=10
  cases with tumor volume decreased to 0 mm^3: 1 case
[2]; single administration, FIGS. 11B-D
  course of tumor volume after the treatment: gradually decreased
[2]; up to 2 months after the injection
  tumor size in the long term after single treatment: steady decrease in the tumor size
